Source: patent publication US12187742B2 (XRAD Therapeutics, Inc., priority 2018, dated 2025)
Where a name gives a salt, the structure may show the parent alone.

Molecular target: ATM (Homo sapiens (Human), UniProt Q13315)
Assay: ATM in Cell Western Assay (pKAP1 in etoposide-treated MCF-7 cells)
Assay type: cell-based
Settings: MCF-7 cells, etoposide 100 μM, 1 hr, pKAP1 readout
Protocol: Assay of Compounds ATM and DNA-PK Inhibition
ATM in Cell Western Assay:
Next day, add corresponding concentration of compounds using pin tool (Echo 550), the final top concentration is 1 μM, 3-fold series dilution, total 10 doses. Then add etoposide (Sigma, #E1383) to a final concentration of 100 μM. Incubate at 37° C. for 1 hr. Fix cells by adding 25 μL of fixing solution (8% paraformaldehyde) for 20 minutes at ambient temperature. Permeabilize cells for 5 washes with 1×PBS (phosphate buffered saline) containing 0.1% Triton X-100; each wash is for 5 minutes. […] The next day, wash the plate 5 times with 1×PBST (1×PBS containing 0.1% Tween-20). […] Wash the cells for 5 times with 1×PBST (1×PBS containing 0.1% Tween-20) at ambient temperature, using gentle shaking in the dark. After the last wash
remove wash solution, turn plate upside down onto a thin paper towel and centrifuge at 1000 rpm for 1 min to absorb all wash buffer. Clean the bottom of plate with moist lint free paper. Scan plate immediately using ODYSSEY CLx (LI-COR) for the best results.

Sequence of ATM (Q13315 whole entry): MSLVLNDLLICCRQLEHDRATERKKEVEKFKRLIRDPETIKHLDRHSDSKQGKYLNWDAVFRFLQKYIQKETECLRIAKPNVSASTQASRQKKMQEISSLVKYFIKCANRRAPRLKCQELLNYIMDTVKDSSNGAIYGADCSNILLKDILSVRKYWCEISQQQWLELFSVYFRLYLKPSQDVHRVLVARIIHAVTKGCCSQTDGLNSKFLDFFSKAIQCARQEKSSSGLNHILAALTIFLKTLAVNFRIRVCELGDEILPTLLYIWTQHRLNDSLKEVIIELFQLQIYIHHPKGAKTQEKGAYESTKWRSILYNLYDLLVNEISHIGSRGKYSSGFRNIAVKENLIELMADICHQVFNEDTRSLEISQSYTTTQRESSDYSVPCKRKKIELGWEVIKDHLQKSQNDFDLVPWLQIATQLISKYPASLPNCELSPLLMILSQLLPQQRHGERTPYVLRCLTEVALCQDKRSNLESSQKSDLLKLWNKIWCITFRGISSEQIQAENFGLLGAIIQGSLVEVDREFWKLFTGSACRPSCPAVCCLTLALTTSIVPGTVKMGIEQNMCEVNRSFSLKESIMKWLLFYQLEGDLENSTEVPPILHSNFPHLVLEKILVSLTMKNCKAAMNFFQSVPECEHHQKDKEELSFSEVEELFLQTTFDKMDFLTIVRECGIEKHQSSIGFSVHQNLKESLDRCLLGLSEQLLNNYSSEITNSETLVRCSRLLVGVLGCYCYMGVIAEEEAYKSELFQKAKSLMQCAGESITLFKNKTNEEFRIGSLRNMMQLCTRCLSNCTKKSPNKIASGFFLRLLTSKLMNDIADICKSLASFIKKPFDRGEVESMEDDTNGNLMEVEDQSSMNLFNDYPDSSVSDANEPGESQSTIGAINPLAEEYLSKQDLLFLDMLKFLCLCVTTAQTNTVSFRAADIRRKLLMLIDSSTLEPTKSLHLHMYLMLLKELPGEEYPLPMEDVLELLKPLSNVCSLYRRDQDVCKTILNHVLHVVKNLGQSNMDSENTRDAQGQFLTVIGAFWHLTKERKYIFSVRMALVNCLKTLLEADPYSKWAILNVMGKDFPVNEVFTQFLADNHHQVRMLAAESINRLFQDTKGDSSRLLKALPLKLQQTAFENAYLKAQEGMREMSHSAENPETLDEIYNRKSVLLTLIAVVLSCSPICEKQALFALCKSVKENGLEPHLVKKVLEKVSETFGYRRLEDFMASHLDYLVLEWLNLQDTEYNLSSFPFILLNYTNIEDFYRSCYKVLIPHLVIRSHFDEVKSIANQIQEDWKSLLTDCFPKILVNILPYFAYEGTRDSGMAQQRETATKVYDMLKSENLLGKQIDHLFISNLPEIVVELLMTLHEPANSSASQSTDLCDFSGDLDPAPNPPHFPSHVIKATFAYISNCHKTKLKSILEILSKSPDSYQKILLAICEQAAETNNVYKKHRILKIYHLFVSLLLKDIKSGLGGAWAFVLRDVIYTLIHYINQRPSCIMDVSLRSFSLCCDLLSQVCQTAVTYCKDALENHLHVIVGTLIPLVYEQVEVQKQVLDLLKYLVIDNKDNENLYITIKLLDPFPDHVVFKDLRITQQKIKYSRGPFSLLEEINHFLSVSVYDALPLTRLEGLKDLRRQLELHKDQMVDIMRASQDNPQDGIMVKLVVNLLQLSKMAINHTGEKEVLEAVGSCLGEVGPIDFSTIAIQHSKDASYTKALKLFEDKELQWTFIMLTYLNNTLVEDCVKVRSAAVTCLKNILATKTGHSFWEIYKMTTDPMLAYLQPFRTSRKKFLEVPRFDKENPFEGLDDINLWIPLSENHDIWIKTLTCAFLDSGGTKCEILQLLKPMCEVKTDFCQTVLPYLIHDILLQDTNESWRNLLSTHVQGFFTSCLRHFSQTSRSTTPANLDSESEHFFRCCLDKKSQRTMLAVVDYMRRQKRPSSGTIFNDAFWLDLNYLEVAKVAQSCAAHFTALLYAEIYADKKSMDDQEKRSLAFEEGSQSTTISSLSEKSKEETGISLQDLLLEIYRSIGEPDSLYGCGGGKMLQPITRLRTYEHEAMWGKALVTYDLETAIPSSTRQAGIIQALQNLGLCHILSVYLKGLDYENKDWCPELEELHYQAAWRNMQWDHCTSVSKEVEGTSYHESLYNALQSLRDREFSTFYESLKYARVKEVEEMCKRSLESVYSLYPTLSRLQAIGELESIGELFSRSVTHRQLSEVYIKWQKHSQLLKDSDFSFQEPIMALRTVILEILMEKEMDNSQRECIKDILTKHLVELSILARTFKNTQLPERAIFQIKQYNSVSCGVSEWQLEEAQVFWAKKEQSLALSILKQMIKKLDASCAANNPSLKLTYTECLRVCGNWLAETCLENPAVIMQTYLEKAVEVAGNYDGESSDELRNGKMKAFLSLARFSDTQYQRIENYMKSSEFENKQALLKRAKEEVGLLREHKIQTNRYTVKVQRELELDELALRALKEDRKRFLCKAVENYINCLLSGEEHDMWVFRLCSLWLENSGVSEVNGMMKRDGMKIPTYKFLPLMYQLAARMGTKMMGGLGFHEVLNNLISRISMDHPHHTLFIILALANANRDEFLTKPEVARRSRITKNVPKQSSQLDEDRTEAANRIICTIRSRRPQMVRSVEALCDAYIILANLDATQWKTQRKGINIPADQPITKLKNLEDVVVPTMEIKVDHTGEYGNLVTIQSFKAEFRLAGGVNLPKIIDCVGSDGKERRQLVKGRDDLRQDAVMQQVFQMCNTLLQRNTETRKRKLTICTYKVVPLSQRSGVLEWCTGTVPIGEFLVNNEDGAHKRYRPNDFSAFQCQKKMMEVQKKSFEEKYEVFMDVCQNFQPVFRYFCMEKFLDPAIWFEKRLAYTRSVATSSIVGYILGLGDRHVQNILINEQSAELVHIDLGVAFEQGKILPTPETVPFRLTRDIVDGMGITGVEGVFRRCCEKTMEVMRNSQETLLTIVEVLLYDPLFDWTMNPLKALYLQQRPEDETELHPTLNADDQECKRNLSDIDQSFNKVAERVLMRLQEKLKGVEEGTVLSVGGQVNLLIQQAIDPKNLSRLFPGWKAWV

First: CN(C)CCCOc1ncc(-c2ccc3ncc4c(c3c2)C2(CCC2)C(=O)N4C)cc1S(N)(=O)=O [Example 255, 2-(3-(Dimethylamino)propoxy)-5-(3′-methyl-2′-oxo-2′,3′-dihydrospiro[cyclobutane-1,1′-pyrrolo[2,3-c]quinolin]-8′-yl)pyridine-3-sulfonamide]
Second: CN(C)CCCOc1ncc(-c2ccc3ncc4c(c3c2)C2(CC2)C(=O)N4C)cc1Cl [Example 55, 8′-(5-Chloro-6-(3-(dimethylamino)propoxy)pyridin-3-yl)-3 methylspiro[cyclopropane-1,1′-pyrrolo[2,3-c]quinolin]-2′(3′-H)-one]
The IC50 of the first is lower: 0.001 to 0.1 µM for the first, > 0.1 µM for the second. The first is the more potent here.

`CN1C(=O)C2(CCC2)c2c1c(N)nc1ccc(-c3cnc(N4CC(N(C)C)C4)c(NS(C)(=O)=O)c3)cc21` [Example 327, N-(5-(4′-Amino-3′-methyl-2′-oxo-2′,3′-dihydrospiro[cyclobutane-1,1′-pyrrolo[2,3-c]quinolin]-8′-yl)-2-(3-(dimethylamino)azetidin-1-yl)pyridin-3-yl)methanesulfonamide hydrochloride] and `CN1C(=O)C2(CCC2)c2c1cnc1ccc(-c3cnc(OCCCO)c(NS(C)(=O)=O)c3)cc21` [Example 254, N-(2-(3-Hydroxypropoxy)-5-(3′-methyl-2′-oxo-2′,3′-dihydrospiro[cyclobutane-1,1′-pyrrolo[2,3-c]quinolin]-8′-yl)pyridin-3-yl)methanesulfonamide] cannot be ordered by IC50: > 0.1 µM for the first, > 0.1 µM for the second.

Compared with `CN(C)CCCOc1ncc(-c2ccc3ncc4c(c3c2)C2(CCC2)C(=O)N4C)cc1NS(=O)(=O)N(C)C1CCNCC1` [Example 179, N-Methyl-N-(piperidin-4-yl)({2-[3-(dimethylamino)propoxy]-5-{3′-methyl-2′-oxo-2′,3′-dihydrospiro[cyclobutane-1,1′-pyrrolo[2,3-c]quinoline]-8-yl}pyridin-3-yl}amino)sulfonamide 2,2,2-trifluoroacetate], `CN1C(=O)C2(CCC2)c2c1cnc1ccc(-c3cnc(OCCCN4CC5CC(C4)O5)c(NS(C)(=O)=O)c3)cc21` [Example 303, N-(2-(3-(6-Oxa-3-azabicyclo[3.1.1]heptan-3-yl)propoxy)-5-(3′-methyl-2′-oxo-2′,3′-dihydrospiro[cyclobutane-1,1′-pyrrolo[2,3-c]quinolin]-8′-yl)pyridin-3-yl)methanesulfonamide] is higher in IC50: 0.001 to 0.1 µM for the first, > 0.1 µM for the second.

First: CN(C)CCCNc1ccc(-c2ccc3ncc4c(c3c2)C2(CC2)C(=O)N4C)cn1 [Example 94, 8′-(6-((3-(Dimethylamino)propyl)amino)pyridin-3-yl)-3′-methylspiro [cyclopropane-1,1′-pyrrolo[2,3-c]quinolin]-2′(3′-H)-one]
Second: Cc1ccc(S(=O)(=O)N(C)c2cc(-c3ccc4ncc5c(c4c3)C3(CCC3)C(=O)N5C)cnc2OCCCN2CCCCC2)cn1 [Example 191, N,6-Dimethyl-N-(5-(3′-methyl-2′-oxo-2′,3′-dihydrospiro [cyclobulane-1,1′-pyrrolo[2,3-c]quinolin]-8′-yl)-2-(3-(piperidin-1-yl)propoxy)pyridin-3-yl)pyridine-3-sulfonamide 2,2,2-trifluoroacetate]
The IC50 of the first is lower: 0.001 to 0.1 µM for the first, > 0.1 µM for the second.

`COc1ncc(-c2ccc3ncc4c(c3c2)C2(CC2)C(=O)N4CC2COC2)cc1NS(=O)(=O)c1ccccc1` [Example 17, N-(2-Methoxy-5-(3 (oxetan-3-ylmethyl)-2′-oxo-2′,3′-dihydrospiro[cyclopropane-1,1′-pyrrolo[2,3-c]quinolin]-8′-yl)pyridin-3-yl)benzenesulfonamide] was tested, and the IC50 was > 0.1 µM.

Same assay, conditions: pKAP1 in etoposide-treated MCF-7 cells

First: CC(C)NCCOc1ncc(-c2cc3c4c(cnc3cc2F)N(C)C(=O)C42CN(C(=O)c3ccccc3)C2)cc1NS(C)(=O)=O [Example 516, N-(5-(1-Benzoyl-7′-fluoro-3′-methyl-2′-oxo-2′,3′-dihydrospiro[azetidine-3,1′-pyrrolo[2,3-c]quinolin]-8′-yl)-2-(2-(isopropylamino)ethoxy)pyridin-3-yl)methanesulfonamide]
Second: CC(C)NCCOc1ncc(-c2cc3c4c(cnc3cc2F)N(C)C(=O)C42CN(Cc3ccccc3)C2)cc1NS(C)(=O)=O [Example 495, N-(5-(1-Benzyl-7-fluoro-3′-methyl-2′-oxo-2′,3′-dihydrospiro[azetidine-3,1′-pyrrolo[2,3-c]quinolin]-8′-yl)-2-(2-(isopropylamino)ethoxy)pyridin-3-yl)methanesulfonamide]
The IC50 of the first is higher: > 0.1 µM for the first, 0.001 to 0.1 µM for the second. The second is the more potent here.

`CC(C)NCCOc1ncc(-c2cc3c(cc2F)ncc2c3[C@]3(C[C@@H](OC(C)c4ccccc4)C3)C(=O)N2C)cc1NS(C)(=O)=O` (stereo partly drawn) [Example 398, trans-N-(5-(7′-Fluoro-3′-methyl-2′-oxo-3-(1-phenylethoxy)-2′,3′-dihydrospiro[cyclobutane-1,1′-pyrrolo[2,3-c]quinolin]-8′-yl)-2-(2-(isopropylamino)ethoxy)pyridin-3-yl)methanesulfonamide] and `CC(C)NCCOc1ncc(-c2cc3c4c(cnc3cc2F)N(C)C(=O)C42CN([C@H](C)c3ccccc3)C2)cc1NS(C)(=O)=O` [Example 494] cannot be ordered by IC50: > 0.1 µM for the first, > 0.1 µM for the second.

`CC(C)NCCOc1ncc(-c2cc3c(cc2F)ncc2c3[C@]3(C[C@@H](Oc4ccccc4)C3)C(=O)N2C)cc1NS(=O)(=O)N(C)C` [Example 403, trans-S′-{5-[(Dimethylsulfamoyl)amino]-6-{2-[(propan-2-ylamino]ethoxy}pyridine-3-yl}-7′-fluoro-3′-methyl-3-phenoxy-2′,3′-dihydrospiro[cyclobutane-1,1′-pyrrolo[2,3-c]quinoline]-2′-one hydrochloride] and `CC(C)NCCOc1ncc(-c2cc3c(cc2F)ncc2c3[C@]3(C[C@@H](N(C)c4ccccc4)C3)C(=O)N2C)cc1NS(C)(=O)=O` [Example 464, trans-N-{5-(7′-Fluoro-3′-methyl-3-(methyl(phenyl)amino)-2′-oxo-2′,3′-dihydrospiro[cyclobutane-1,1′-pyrrolo[2,3-c]quinolin]-8′-yl)-2-(2-(isopropylamino)ethoxy)pyridin-3-yl)methanesulfonamide] cannot be ordered by IC50: > 0.1 µM for the first, > 0.1 µM for the second.

`CC(C)NCCOc1ncc(-c2cc3c4c(cnc3cc2F)N(C)C(=O)C42CN(c3ccc(C(C)(C)C)cc3)C2)cc1NS(C)(=O)=O` [Example 531, N-(5-(1-(4-(ter-Butyl)phenyl)-7′-fluoro-3′-methyl-2′-oxo-2′,3′-dihydrospiro[azetidine-3,1′-pyrrolo[2,3-c]quinolin]-8′-yl)-2-(2-(isopropylamino)ethoxy)pyridin-3-yl)methanesulfonamide] and `CC(C)NCCOc1ncc(-c2cc3c4c(cnc3cc2F)N(C)C(=O)C42CN(c3cccc(OC(F)(F)F)c3)C2)cc1NS(C)(=O)=O` [Example 542, N-(5-(7′-Fluoro-3′-methyl-2′-oxo-1-(3-(trifluoromethoxy)phenyl)-2′,3′-dihydrospiro[azetidine-3,1′-pyrrolo[2,3-c]quinolin]-8′-yl)-2-(2-(isopropylamino)ethoxy)pyridin-3-yl)methanesulfonamide] fall in the same range of IC50: 0.001 to 0.1 µM for the first, 0.001 to 0.1 µM for the second.

`CC(C)NCCOc1ncc(-c2cc3c(cc2F)ncc2c3[C@]3(C[C@@H](O)C3)C(=O)N2C)cc1NS(C)(=O)=O` [Example 382, trans-N-(5-(7′-Fluoro-3-hydroxy-3′-methyl-2′-oxo-2′,3′-dihydrospiro[cyclobutane-1,1′-pyrrolo[2,3-c]quinolin]-8′-yl)-2-(2-(isopropylamino)ethoxy)pyridin-3-yl)methanesulfonamide] and `COC[C@H]1C[C@@]2(C1)C(=O)N(C)c1cnc3cc(F)c(-c4cnc(OCCNC(C)C)c(NS(C)(=O)=O)c4)cc3c12` [Example 405, trans-N-(5-(7′-Fluoro-3-(methoxymethyl)-3′-methyl-2′-oxo-2′,3′-dihydrospiro[cyclobutane-1,1′-pyrrolo[2,3-c]quinolin]-8′-yl)-2-(2-(isopropylamino)ethoxy)pyridin-3-yl)methanesulfonamide] fall in the same range of IC50: 0.001 to 0.1 µM for the first, 0.001 to 0.1 µM for the second.

First: CN(C)c1ncc(-c2cc3c4c(cnc3cc2F)N(C)C(=O)C42CCC2)cn1 [Example 364, 8′-(2-(Dimethylamino)pyrimidin-5-yl)-7′-fluoro-3′-methylspiro[cyclobutane-1,1′-pyrrolo[2,3-c]quinolin]-2′(3′-H)-one]
Second: CC(C)NCCOc1ncc(-c2cc3c(cc2F)ncc2c3[C@]3(C[C@H](N4CCOCC4)C3)C(=O)N2C)cc1NS(C)(=O)=O [Example 471, cis-N-(5-(7′-Fluoro-3′-methyl-3-morpholino-2-oxo-2′,3′-dihydrospiro[cyclobutane-1,1′-pyrrolo[2,3-c]quinolin]-8′-yl)-2-(2-(isopropylamino)ethoxy)pyridin-3-yl)methanesulfonamide]
The IC50 of the first is higher: > 0.1 µM for the first, 0.001 to 0.1 µM for the second. The second is the more potent here.

First: CC(C)NCCOc1ncc(-c2ccc3ncc4c(c3n2)C2(CCC2)C(=O)N4C)cc1NS(C)(=O)=O [Example 561, N-(5-[7-Methyl-8-oxo-7,8-dihydrospiro[cyclobutane-1,9-pyrrolo[2,3-c]1,5-naphthyridin]-2-yl]-2-[2-[(propan-2-yl)amino]ethoxy]pyridin-3-yl) methanesulfonamide]
Second: CC(C)NCCOc1ncc(-c2cc3c(cc2F)ncc2c3[C@]3(C[C@H](n4ccccc4=O)C3)C(=O)N2C)cc1NS(C)(=O)=O [Example 475, cis-N-(5-(7′-Fluoro-3′-methyl-2′-oxo-3-(2-oxopyridin-1(2H)-yl)-2′,3′-dihydrospiro[cyclobutane-1,1′-pyrrolo[2,3-c]quinolin]-8′-yl)-2-(2-(isopropylamino)ethoxy)pyridin-3-yl)methanesulfonamide]
The IC50 of the first is lower: 0.001 to 0.1 µM for the first, > 0.1 µM for the second. The first is the more potent here.
